# In article PMC11840258, “Detection of chimeric alpha-defensin transcripts and peptides in mouse Paneth cells” (Frontiers in Immunology, 2025):
# No end group written: not given here.
# Key:
# Format in all cases: cell-based
# [1] = test system: E. coli, C. rodentium, S. nepalensis, E. fecalis; test: Anti-bacterial activity assay, over the four bacterial species; settings: 1U = dose needed to kill 50% of the bacteria (IC50)
# Description: (§1) Antimicrobial essays for the synthetic proteins were performed against Escherichia coli, Staphylococcus nepalensis, Enterococcus fecalis and Citrobacter rodentium. The first three species are common in small intestine in mice (where Paneth cells are relevant), while C. rodentium is a common pathogen in mice. To obtain cultures of the first three species, C57BL/6J mice were euthanized, ileum content harvested and diluted in sterile PBS and plated out on standard LB plates, overnight. Colonies were picked and species identified using Maldi-Toff [as previously described ([19])]. The relevant pure colonies of these three species were then grown on plates, identified once again, and grown in liquid LB and frozen at -80°C. The C. rodentium culture was strain ICC 169 and was obtained from ATCC.
# Bacteria were grown in LB broth at 37°C in an incubation shaker (100rpm) until and OD between 0.8-1. For each peptide, a dilution set (800 µl/peptide) derived from the stock solution was prepared in such manner to obtain a final volume of 1 ml with peptide concentrations of 20 µg/ml, 10 µg/ml, 4 µg/ml and 2 µg/ml. Bacteria grown in LB broth where diluted to OD 0.2. For each bacterium, 200 µl of the OD 0.2 solution was added to each of the peptide dilutions and incubated at 37°C for four hours at 55 rpm. […] The plates were incubated at 37°C overnight after which colonies per plate were counted and tabulated. […]
# [2] = test system: Citrobacter rodentium strain ICC 169; test: Anti-bacterial activity assay (colony counts after peptide titration); settings: 1U = dose needed to kill 50% of the bacteria (IC50), peptide 20, 10, 4, 2 µg/ml, 4 h at 37°C, colonies counted on LB agar, logistic 4 parameter model (drda), means of two independent experiments
# Description: as §1
# (§2) Bacteria were grown in LB broth at 37°C in an incubation shaker (100rpm) until and OD between 0.8-1. For each peptide, a dilution set (800 µl/peptide) derived from the stock solution was prepared in such manner to obtain a final volume of 1 ml with peptide concentrations of 20 µg/ml, 10 µg/ml, 4 µg/ml and 2 µg/ml. Bacteria grown in LB broth where diluted to OD 0.2. For each bacterium, 200 µl of the OD 0.2 solution was added to each of the peptide dilutions and incubated at 37°C for four hours at 55 rpm. After incubation 100 µl of the incubated mixture was plated out on LB agar plates at two concentrations: undiluted and 1:10 diluted. The plates were incubated at 37°C overnight after which colonies per plate were counted and tabulated. The highest plated out concentration that still had individually distinguishable colonies was used.
# (§3) The R package “drda” ([20]) was used to perform a dose-response analysis using the logistic 4 parameter model. The concentration that inhibits growth by 50%, IC50, was obtained from the models for each combination of bacterium and peptide and converted into per peptide specific activity.
# Enterococcus fecalis = test: as above; settings: 1U = dose needed to kill 50% of the bacteria (IC50); peptide 20, 10, 4, 2 µg/ml; 4 h at 37°C; colonies counted on LB agar; logistic 4 parameter model (drda); isolate from mouse ileum; means of two independent experiments
# Description: as §1, §2, §3
# Escherichia coli = test: as above; settings: 1U = dose needed to kill 50% of the bacteria (IC50); peptide 20, 10, 4, 2 µg/ml; 4 h at 37°C; colonies counted on LB agar; logistic 4 parameter model (drda); isolate from mouse ileum; means of two independent experiments
# Description: as §1, §2, §3
# [3] = test system: Staphylococcus nepalensis; test: as above; settings: 1U = dose needed to kill 50% of the bacteria (IC50); peptide 20, 10, 4, 2 µg/ml; 4 h at 37°C; colonies counted on LB agar; logistic 4 parameter model (drda); isolate from mouse ileum; means of two independent experiments
# Description: as §1, §2, §3
Substance,"Specific activity of cell killing, Mean [1]","Specific activity of cell killing, C. rodentium [2]","Specific activity of cell killing, E. fecalis (Enterococcus fecalis)","Specific activity of cell killing, E. coli (Escherichia coli)","Specific activity of cell killing, S. nepalensis [3]"
"Defa31: custom-synthesized mature peptide of parental mouse α-defensin Defa31 (PRCPPCPRCSWCPRCPTCPRCNCNPK; ends and bridges not checked; cysteine pairing not given here; UniProt P50715 66-91, looked up)",334 U/mg,314 U/mg,189 U/mg,397 U/mg,437 U/mg
"Defa24: custom-synthesized mature peptide of parental mouse α-defensin Defa24 (LRDLVCYCRARGCKGRERMNGTCSKGHLLYMLCC; ends and bridges not checked; cysteine pairing not given here; UniProt Q5G865 59-92, looked up)",58 U/mg,77 U/mg,23 U/mg,122 U/mg,8 U/mg
